Key:
velvetleaf = experiment: Test A pre-/postemergence herbicide test; assay type: in vivo, Abutilon theophrasti
Method in brief: (§1)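 Both application timings used compounds in a non-phytotoxic solvent plus surfactant. Pre-emergence: soil sprayed directly after seeding into loam/sand. Post-emergence: foliage of 2–10 cm seedlings (1–2 leaves) sprayed. Injury rated ~10 days later, 0–100.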

giant foxtail = experiment: Test A pre-/postemergence herbicide test; assay type: in vivo, Setaria faberii
Method in brief: as §1

crabgrass, large = experiment: Test A pre-/postemergence herbicide test; assay type: in vivo, Digitaria sanguinalis
Method in brief: as §1

morningglory = experiment: Test A pre-/postemergence herbicide test; assay type: in vivo, Ipomoea spp.
Method in brief: as §1

barnyardgrass [1] = experiment: Test A pre-/postemergence herbicide test; assay type: in vivo, Echinochloa crus-galli
Method in brief: as §1

corn = experiment: Test A pre-/postemergence herbicide test; assay type: in vivo, Zea mays
Method in brief: as §1

pigweed = experiment: Test A pre-/postemergence herbicide test; assay type: in vivo, Amaranthus retroflexus
Method in brief: as §1

rice = experiment: Test B flooded paddy test; assay type: in vivo, Oryza sativa; settings: Flood, scale of 0 to 100 where 0 is no effect and 100 is complete control
Method in brief: (§2)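 Scored visually 0–100 (0 no effect, 100 complete control) versus controls after 13 to 15 greenhouse days. Treatment: compound added to paddy water kept 3 cm above soil, on 2-leaf-stage plants.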

ducksalad = experiment: Test B flooded paddy test; assay type: in vivo, Heteranthera limosa; settings: Flood, scale of 0 to 100 where 0 is no effect and 100 is complete control
Method in brief: as §2

wheat = experiment: Test A pre-/postemergence herbicide test; assay type: in vivo, Triticum aestivum
Method in brief: as §1

barnyardgrass [2] = experiment: Test B flooded paddy test; assay type: in vivo, Echinochloa crus-galli; settings: Flood, scale of 0 to 100 where 0 is no effect and 100 is complete control
Method in brief: as §2

sedge, umbrella = experiment: Test B flooded paddy test; assay type: in vivo, Cyperus difformis; settings: Flood, scale of 0 to 100 where 0 is no effect and 100 is complete control
Method in brief: as §2

[3] = Postemergence, 125 g ai/ha, 0 to 100 scale, 0 no effect, 100 complete control
[4] = Postemergence, 500 g ai/ha, 0 to 100 scale (0 no effect, 100 complete control)
[5] = Preemergence, 125 g ai/ha, visual rating on 0 to 100 scale (0 no effect, 100 complete control)
[6] = preemergence, 500 g ai/ha, 0 to 100 scale
[7] = preemergence, 500 g ai/ha, 0 to 100 scale (0 no effect, 100 complete control)
[8] = Postemergence, 1000 g ai/ha, 0 to 100 scale (0 no effect, 100 complete control)
[9] = Preemergence, 1000 g ai/ha, visual rating on 0 to 100 scale (0 no effect, 100 complete control), approx. 10 days
[10] = preemergence, 1000 g ai/ha, 0 to 100 scale

## N#Cc1cccc(C2CNC(=O)C2C(=O)Nc2cccc(F)c2F)c1 (racemic) [Compound 73]
velvetleaf; [3]
  Plant response rating, Velvetleaf: 0
velvetleaf; [4]
  Plant response rating, Velvetleaf: 30
velvetleaf; [5]
  Velvetleaf plant response rating: 0
velvetleaf; [6]
  Plant response rating, Velvetleaf: 0
Giant foxtail; [3]
  Plant response rating, Foxtail, Giant: 30
Giant foxtail; [4]
  Plant response rating, Foxtail, Giant: 80
Giant foxtail; [5]
  Foxtail, Giant plant response rating: 80
Giant foxtail; [6]
  Plant response rating, Foxtail, Giant: 90
crabgrass, large; [3]
  Plant response rating, Crabgrass, Large: 50
crabgrass, large; [4]
  Plant response rating, Crabgrass, Large: 80
crabgrass, large; [5]
  Crabgrass, Large plant response rating: 80
crabgrass, large; [6]
  Plant response rating, Crabgrass, Large: 90
morningglory; [3]
  Plant response rating, Morningglory: 0
morningglory; [4]
  Plant response rating, Morningglory: 20
morningglory; [5]
  Morningglory plant response rating: 0
morningglory; [6]
  Plant response rating, Morningglory: 0
Barnyardgrass [1]; [3]
  Plant response rating, Barnyardgrass: 70
Barnyardgrass [1]; [4]
  Plant response rating, Barnyardgrass: 80
Barnyardgrass [1]; [5]
  Barnyardgrass plant response rating: 50
Barnyardgrass [1]; [7]
  Plant response rating, Barnyardgrass: 80
corn; [3]
  Plant response rating, Corn: 0
corn; [4]
  Plant response rating, Corn: 0
corn; [5]
  Corn plant response rating: 0
corn; [6]
  Plant response rating, Corn: 0
pigweed; [4]
  Plant response rating, Pigweed: 0
pigweed; [5]
  Pigweed plant response rating: 0
pigweed; [6]
  Plant response rating, Pigweed: 0
rice; 250 g ai/ha
  Plant response rating, Rice: 0
ducksalad; 250 g ai/ha
  Plant response rating, Ducksalad: 60
wheat; [3]
  Plant response rating, Wheat: 0
wheat; [4]
  Plant response rating, Wheat: 0
wheat; [5]
  Wheat plant response rating: 0
wheat; [6]
  Plant response rating, Wheat: 0
Barnyardgrass [2]; 250 g ai/ha
  Plant response rating, Barnyardgrass: 0
sedge, umbrella; 250 g ai/ha
  Plant response rating, Sedge, Umbrella: 0

## O=C1NCC(c2ccc(F)c(F)c2)C1C(=O)Nc1ccc[nH]c1=O (racemic) [Compound 97]
velvetleaf; [3]
  Plant response rating, Velvetleaf: 0
velvetleaf; [4]
  Plant response rating, Velvetleaf: 0
velvetleaf; [5]
  Velvetleaf plant response rating: 0
velvetleaf; [6]
  Plant response rating, Velvetleaf: 0
Giant foxtail; [3]
  Plant response rating, Foxtail, Giant: 0
Giant foxtail; [4]
  Plant response rating, Foxtail, Giant: 0
Giant foxtail; [5]
  Foxtail, Giant plant response rating: 0
Giant foxtail; [6]
  Plant response rating, Foxtail, Giant: 0
crabgrass, large; [3]
  Plant response rating, Crabgrass, Large: 0
crabgrass, large; [4]
  Plant response rating, Crabgrass, Large: 0
crabgrass, large; [5]
  Crabgrass, Large plant response rating: 0
crabgrass, large; [6]
  Plant response rating, Crabgrass, Large: 0
morningglory; [3]
  Plant response rating, Morningglory: 0
morningglory; [4]
  Plant response rating, Morningglory: 0
morningglory; [5]
  Morningglory plant response rating: 0
morningglory; [6]
  Plant response rating, Morningglory: 0
Barnyardgrass [1]; [3]
  Plant response rating, Barnyardgrass: 0
Barnyardgrass [1]; [4]
  Plant response rating, Barnyardgrass: 0
Barnyardgrass [1]; [5]
  Barnyardgrass plant response rating: 0
Barnyardgrass [1]; [7]
  Plant response rating, Barnyardgrass: 0
corn; [3]
  Plant response rating, Corn: 0
corn; [4]
  Plant response rating, Corn: 0
corn; [5]
  Corn plant response rating: 0
corn; [6]
  Plant response rating, Corn: 0
pigweed; [3]
  Plant response rating, Pigweed: 0
pigweed; [4]
  Plant response rating, Pigweed: 0
pigweed; [5]
  Pigweed plant response rating: 0
pigweed; [6]
  Plant response rating, Pigweed: 0
rice; 250 g ai/ha
  Plant response rating, Rice: 50
ducksalad; 250 g ai/ha
  Plant response rating, Ducksalad: 70
wheat; [3]
  Plant response rating, Wheat: 0
wheat; [4]
  Plant response rating, Wheat: 0
wheat; [5]
  Wheat plant response rating: 0
wheat; [6]
  Plant response rating, Wheat: 0
Barnyardgrass [2]; 250 g ai/ha
  Plant response rating, Barnyardgrass: 50
sedge, umbrella; 250 g ai/ha
  Plant response rating, Sedge, Umbrella: 75

## O=C1NCC(c2ccc(F)c(F)c2)C1C(=O)Nc1cccc(Cl)c1F (racemic) [Compound 104]
velvetleaf; [8]
  Plant response rating, Velvetleaf: 10
velvetleaf; [9]
  Plant response rating, Velvetleaf: 0
Giant foxtail; [8]
  Plant response rating, Foxtail, Giant: 70
Giant foxtail; [9]
  Plant response rating, Foxtail, Giant: 90
crabgrass, large; [8]
  Plant response rating, Crabgrass, Large: 80
crabgrass, large; [9]
  Plant response rating, Crabgrass, Large: 90
morningglory; [8]
  Plant response rating, Morningglory: 0
morningglory; [9]
  Plant response rating, Morningglory: 0
Barnyardgrass [1]; [8]
  Plant response rating, Barnyardgrass: 80
Barnyardgrass [1]; [9]
  Plant response rating, Barnyardgrass: 80
corn; [8]
  Plant response rating, Corn: 0
corn; [9]
  Plant response rating, Corn: 20
pigweed; [8]
  Plant response rating, Pigweed: 0
pigweed; [9]
  Plant response rating, Pigweed: 0
rice; 1000 g ai/ha
  Plant response rating, Rice: 0
ducksalad; 1000 g ai/ha
  Plant response rating, Ducksalad: 95
wheat; [8]
  Plant response rating, Wheat: 0
wheat; [9]
  Plant response rating, Wheat: 20
Barnyardgrass [2]; 1000 g ai/ha
  Plant response rating, Barnyardgrass: 70
sedge, umbrella; 1000 g ai/ha
  Plant response rating, Sedge, Umbrella: 0

## O=C1NCC(c2ccc(F)c(F)c2)C1C(=O)Nc1cccnc1F (racemic) [Compound 105]
velvetleaf; [8]
  Plant response rating, Velvetleaf: 10
velvetleaf; [10]
  Plant response rating, Velvetleaf: 0
Giant foxtail; [8]
  Plant response rating, Foxtail, Giant: 80
Giant foxtail; [10]
  Plant response rating, Foxtail, Giant: 90
crabgrass, large; [8]
  Plant response rating, Crabgrass, Large: 90
crabgrass, large; [10]
  Plant response rating, Crabgrass, Large: 90
morningglory; [8]
  Plant response rating, Morningglory: 10
morningglory; [10]
  Plant response rating, Morningglory: 0
Barnyardgrass [1]; [8]
  Plant response rating, Barnyardgrass: 90
Barnyardgrass [1]; preemergence, 1000 g ai/ha, 0 to 100 scale (0 no effect, 100 complete control)
  Plant response rating, Barnyardgrass: 90
corn; [8]
  Plant response rating, Corn: 0
corn; [10]
  Plant response rating, Corn: 0
pigweed; [8]
  Plant response rating, Pigweed: 0
pigweed; [10]
  Plant response rating, Pigweed: 0
rice; 1000 g ai/ha
  Plant response rating, Rice: 10
ducksalad; 1000 g ai/ha
  Plant response rating, Ducksalad: 90
wheat; [8]
  Plant response rating, Wheat: 0
wheat; [10]
  Plant response rating, Wheat: 0
Barnyardgrass [2]; 1000 g ai/ha
  Plant response rating, Barnyardgrass: 25
sedge, umbrella; 1000 g ai/ha
  Plant response rating, Sedge, Umbrella: 0
